Results taken from patent publication US8445473B2, “Heteroaryl-substituted bicyclic Smac mimetics and the uses thereof” (The Regents of the University of Michigan, priority 2008, dated 2013).

B1: mature Smac protein: mature Smac/DIABLO protein, endogenous inhibitor of XIAP (protein, UniProt Q9NR28 22-239, looked up)
Diablo IAP-binding …: LCVPVVANFKKRCFSELIRPWHKTVTIGFGVTLCAVPIAQKSEPHSLSSEALMRRAVSLVTDSTSTFLSQTTYALIEAITEYTKAVYTLTSLYRQYTSLLGKMNSEEEDEVWQVIIGARAEMTSKHQEYLKLETTWMTAVGLSEMAAEAAYQTGADQASITARNHIQLVKLQVEEVHQLSRKAETKLAEAQIEELRQKTQEEGEERAESEQEAYLRED

Columns and labels:
XIAP BIR3 protein [1] = target: T1, XIAP BIR3 protein (Homo sapiens, UniProt P98170); assay: Fluorescence polarization competitive binding assay to XIAP BIR3; conditions: FP competitive binding, SM5F or SM-F1 as the tracer
Text: A sensitive and quantitative in vitro binding assay using the fluorescence polarization (FP) based method was used to determine the binding affinity of Smac mimetics to XIAP protein (Nikolovska-Coleska et al., Anal. Biochem. 332:261-73 (2004)). For this assay, 5-carboxyfluorescein (5-Fam) was coupled to the lysine side chain of the mutated Smac peptide, AbuRPF-K-(5-Fam)-NH2 (termed SM5F). Another fluorescently tagged Smac mimetic (termed SM-F1) with higher affinities than SM5F was also used.
(§1) In competitive binding experiments using SM5F as the tracer to XIAP BIR3 protein, the tested compound was incubated with XIAP BIR3 protein (30 nM) and SM5F (5 nM) in the assay buffer (100 mM potassium phosphate, pH 7.5; 100 μg/ml bovine gamma globulin; 0.02% sodium azide, Invitrogen). Dose-dependent competitive binding FP experiments were carried out with serial dilutions of tested compounds. For each assay, the bound peptide control containing recombinant XIAP BIR3 protein and SM5F (equivalent to 0% inhibition) and free peptide control containing only free SM5F (equivalent to 100% inhibition) will be included. The polarization values were measured after 3 hrs of incubation when the binding reached equilibrium using an ULTRA READER (Tecan U.S. Inc., Research Triangle Park, N.C.). IC50 values, the inhibitor concentration at which 50% of bound peptide is displaced, will be determined from a plot using nonlinear least-squares analysis. Curve fitting will be performed using GRAPHPAD PRISM software (GraphPad Software, Inc., San Diego, Calif.).
as §1, with “using SM-F1” for “using SM5F”, “protein (10” for “protein (30”, “and SM-1F (2” for “and SM5F (5”, “and SM-1F” for “and SM5F”, “free SM-1F” for “free SM5F”
Negative controls containing protein/tracer complex only (equivalent to 0% inhibition), and positive controls containing only free tracers (equivalent to 100% inhibition), were included in each assay plate. FP values were measured as described above. IC50 values were determined by nonlinear regression fitting of the competition curves. The Ki values of competitive inhibitors were calculated using the equation described before (Nikolovska-Coleska et al., Anal. Biochem. 332:261-73 (2004)), based upon the measured IC50 values, the Kd values of the tracer to different proteins, and the concentrations of the proteins and tracers in the competitive assays. Ki values were also calculated using a commonly used equation known in the literature (Huang, X. J. Biomol. Screen. 8:34-38 (2003)).

[2] = test system: MDA-MB-231 human breast cancer cell line; assay: Cell growth inhibition, WST-8 assay; type: cell-based; conditions: MDA-MB-231, 96 h, 4 days
Method: (§2) The effect of the compounds of the present invention on the growth of various cancer cell lines was tested. Cells were seeded in 96-well flat bottom cell culture plates at a density of 3000 cells/well with a tested compound and incubated at 37° C. in an atmosphere of 95% air and 5% CO2 for 4 days. The rate of cell growth inhibition after treatment with different concentrations of the compound was determined using a WST-8 kit (2-(2-methoxy-4-nitrophenyl)-3-(4-nitrophenyl)-5-(2, 4 disulfophenyl)-2H-tetrazolium monosodium salt; Dojindo Molecular Technologies, Inc., Gaithersburg, Md.). WST-8 was added at a final concentration of 10% to each well, and then the plates were incubated at 37° C. for 2-3 hrs. The absorbance of the samples was measured at 450 nm using a ULTRA Tecan Reader (Molecular Device). The concentration of the tested compound that inhibited cell growth by 50% (IC50) was calculated by comparing absorbance in untreated cells and the cells treated with the tested compound.

[3] = test system: SK-OV-3 ovarian cancer cell line; assay: Cell growth inhibition, WST-8 assay; type: cell-based; conditions: Homo sapiens, SK-OV-3, 96 h, 4 days
Method: as §2

[4] = target: T2, cIAP2 BIR3 domain (residues 238-349) (Homo sapiens, UniProt Q13489); assay: Fluorescence polarization competitive binding assay to cIAP2 BIR3; conditions: FP competitive binding, SM5F or SM-F1 as the tracer
T2 construct: cIAP2 BIR3 domain (residues 238-349); His-tag
Method: (§3) In order to test the binding ability of conformationally constrained Smac mimetics to other IAP proteins (cIAP1 and cIAP2) binding assay conditions were developed. The recombinant cIAP1 BIR3 domain (residues 253-363), cIAP2 BIR3 domain (residues 238-349), fused to a His-tag, were used in the binding assays. Competitive binding assays for other IAP proteins are performed similarly as that described for XIAP BIR3.
(§4) In competitive binding experiments using SM5F as the tracer to cIAP-1 BIR3 protein, the tested compound was incubated with cIAP-1 BIR3 protein (10 nM) and SM5F (2 nM) in the assay buffer. In competitive binding experiments using SM5F as the tracer to cIAP-2 BIR3 protein, the tested compound was incubated with cIAP-2 BIR3 protein (25 nM) and SM5F (2 nM) in the assay buffer. All other procedures for cIAP-1 BIR3 and cIAP-2 BIR3 proteins were the same as those used for XIAP BIR3 protein competitive assays.
(§5) In competitive binding experiments using SM-F1 as the tracer to cIAP-1 BIR3 protein, the tested compound was incubated with cIAP-1 BIR3 protein (3 nM) and SM-F1 (1 nM) in the assay buffer. In competitive binding experiments using SM-F1 as the tracer to cIAP-2 BIR3 protein, the tested compound was incubated with cIAP-2 BIR3 protein (5 nM) and SM-F1 (1 nM) in the assay buffer.

[5] = target: T3, cIAP1 BIR3 domain (residues 253-363) (Homo sapiens, UniProt Q13490); assay: Fluorescence polarization competitive binding assay to cIAP1 BIR3; conditions: FP competitive binding, SM5F or SM-F1 as the tracer
T3 construct: The recombinant cIAP1 BIR3 domain (residues 253-363); His-tag
Method: as §3, §4, §5

[6] = Pharmacokinetics in rats following oral administration; conditions: rat, in vivo, male Sprague-Dawley rats, 25 mg/kg, mean±SD; for AUC(0-inf) / Cmax / Tmax: n=3; for half-life: n=3, read-out: half-life (T½) (converted)
[7] = test system: ovarian cancer SK-OV-3 cell line; assay: Induction of cell death, trypan blue exclusion assay; type: cell-based, human; conditions: SK-OV-3, 48 hours, FIG. 3
Method: (§6) The ability of SM-1238 to induce cell death was tested in the breast cancer MDA-MB-231 and ovarian cancer SK-OV-3 cell lines (FIG. 3). Cells were treated with SM-1238 for 48 hours and cell viability was determined using the trypan blue exclusion assay.

[8] = test system: breast cancer MDA-MB-231 cell line; assay: as above; type: cell-based, human; conditions: MDA-MB-231, 48 hours, FIG. 3
Method: as §6

XIAP BIR3 protein [9] = target: T1, XIAP BIR3 protein; conditions: tracer SM5F; Nikolovska-Coleska et al. 2004; cited from earlier work
recombinant cIAP-1 BIR3 = target: T4, recombinant cIAP-1 BIR3 (Homo sapiens, UniProt Q13490); conditions: tracer SM5F; Peng et al. 2008; cited from earlier work
T4 construct: The recombinant cIAP1 BIR3 domain (residues 253-363); His-tag

recombinant cIAP-2 BIR3 = target: T5, recombinant cIAP-2 BIR3 (Homo sapiens, UniProt Q13489); conditions: tracer SM5F; Peng et al. 2008; cited from earlier work
T5 construct: cIAP2 BIR3 domain (residues 238-349); His-tag

XIAP BIR3 = conditions: background statement; cited from earlier work

T2 sequence (Q13489 238-349): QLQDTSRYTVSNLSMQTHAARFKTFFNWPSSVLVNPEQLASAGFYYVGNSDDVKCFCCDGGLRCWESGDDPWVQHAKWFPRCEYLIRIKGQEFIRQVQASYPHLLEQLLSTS
T1 sequence (P98170 241-356 limits assumed): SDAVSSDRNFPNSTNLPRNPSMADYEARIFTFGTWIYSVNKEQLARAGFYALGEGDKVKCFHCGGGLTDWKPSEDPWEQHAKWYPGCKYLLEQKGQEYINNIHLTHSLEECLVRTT
T3 sequence (Q13490 253-363): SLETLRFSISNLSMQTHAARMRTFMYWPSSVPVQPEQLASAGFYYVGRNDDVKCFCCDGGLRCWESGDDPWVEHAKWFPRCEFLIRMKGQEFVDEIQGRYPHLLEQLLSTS
T5 sequence (Q13489 238-349): as the sequence (Q13489 238-349) above
T1 sequence (P98170 241-356 limits assumed): as the sequence (P98170 241-356 limits assumed) above
T4 sequence (Q13490 253-363): as the sequence (Q13490 253-363) above

Molecule | IC50 (XIAP BIR3 protein [1]) [nM] | IC50 [2] [nM] | IC50 [3] [nM] | IC50 [4] [nM] | IC50 [5] [nM] | AUC(0-inf) [6] [ng·h/mL] | Cmax [6] [ng/mL] | Tmax [6] [h] | half-life [6] [h] | induction of cell death [7] | induction of cell death [8] | Kd (XIAP BIR3 protein [9]) [nM] | Kd (recombinant cIAP-1 BIR3) [nM] | Kd (recombinant cIAP-2 BIR3) [nM] | Kd (XIAP BIR3) [nM]
CN[C@@H](C)C(=O)N[C@H]1CN(C(=O)Cc2ccccc2)CC[C@H]2CC[C@@H](c3nc4c(-c5ccccc5)cccc4[nH]3)N2C1=O [SM-1257] | < 500 | < 3000 | < 3000 | < 100 | < 100 | – | – | – | – | – | – | – | – | – | –
CN[C@@H](C)C(=O)N[C@H]1CCCC[C@H]2CC[C@@H](c3nc(-c4ccccc4)cs3)N2C1=O [SM-1229] | < 5000 | < 100000 | < 100000 | < 2000 | < 2000 | – | – | – | – | – | – | – | – | – | –
CN[C@@H](C)C(=O)N[C@H]1CN(C(=O)CCc2ccc(F)cc2)CC[C@H]2CC[C@@H](c3nc4c(-c5ccccc5)cccc4[nH]3)N2C1=O [SM-1271] | < 500 | < 3000 | < 3000 | < 100 | < 100 | – | – | – | – | – | – | – | – | – | –
CN[C@@H](C)C(=O)N[C@H]1CN(C(=O)CCc2ccccc2)CC[C@H]2CC[C@@H](c3nc4c(-c5ccccc5)cccc4[nH]3)N2C1=O [SM-1270] | < 500 | < 3000 | < 3000 | < 100 | < 100 | – | – | – | – | – | – | – | – | – | –
CN[C@@H](C)C(=O)N[C@H]1CN(C(=O)CC(C)C)CC[C@H]2CC[C@@H](c3nc4c(-c5ccc(F)cc5)cccc4[nH]3)N2C1=O [SM-1316] | < 500 | < 3000 | < 3000 | < 100 | < 100 | 14300 ± 1970 | 1530 ± 275 | 2 | 6.7 ± 1.2 | – | – | – | – | – | –
CN[C@@H](C)C(=O)N[C@H]1CCCC[C@H]2CC[C@@H](c3nc4c(-c5ccccc5)cccc4[nH]3)N2C1=O [SM-1237] | < 200 | < 3000 | < 3000 | < 100 | < 100 | – | – | – | – | – | – | – | – | – | –
CN[C@@H](C)C(=O)N[C@H]1CN(C(=O)CC(C)C)CC[C@H]2CC[C@@H](c3nc4c(-c5ccccc5)cccc4[nH]3)N2C1=O [SM-1238] | < 200 | < 3000 | < 3000 | < 100 | < 100 | 7100 ± 931 | 831 ± 135 | 2 ± 1.7 | 3.7 ± 2 | induced cell death in both cell lines in a concentration-dependant fashion | induced cell death in both cell lines in a concentration-dependant fashion | – | – | – | –
AbuRPF-K-(5-Fam)-NH2 [SM5F] | – | – | – | – | – | – | – | – | – | – | – | 17.9 | 4.1 | 6.6 | –
CN[C@@H](C)C(=O)N[C@H]1CN(C(=O)Cc2ccccc2)CC[C@H]2CC[C@@H](c3nc4c(-c5ccc(F)cc5)cccc4[nH]3)N2C1=O [SM-1317] | < 500 | < 3000 | < 3000 | < 100 | < 100 | – | – | – | – | – | – | – | – | – | –
CN[C@@H](C)C(=O)N[C@H]1CN(C(=O)CC(C)C)CC[C@H]2CC[C@@H](c3nc(-c4ccccc4)cs3)N2C1=O [SM-1235] | < 200 | < 3000 | < 3000 | < 1000 | < 1000 | – | – | – | – | – | – | – | – | – | –
CN[C@@H](C)C(=O)N[C@H]1CN(C(=O)Cc2ccc(F)cc2)CC[C@H]2CC[C@@H](c3nc4c(-c5cccc(F)c5)cccc4[nH]3)N2C1=O [SM-1306] | < 5000 | < 3000 | < 3000 | < 100 | < 100 | – | – | – | – | – | – | – | – | – | –
CN[C@@H](C)C(=O)N[C@H]1CN(C(=O)Cc2ccc(F)cc2)CC[C@H]2CC[C@@H](c3nc4c(-c5ccccc5F)cccc4[nH]3)N2C1=O [SM-1308] | < 500 | < 3000 | < 3000 | < 100 | < 100 | – | – | – | – | – | – | – | – | – | –
CN[C@@H](C)C(=O)N[C@H]1CN(C(=O)Cc2ccc(F)cc2)CC[C@H]2CC[C@@H](c3nc4c(-c5ccccc5)cccc4[nH]3)N2C1=O [SM-1268] | < 500 | < 3000 | < 3000 | < 100 | < 100 | 6490 ± 965 | 612 ± 16 | 2 | 4.2 ± 1 | – | – | – | – | – | –
CN[C@@H](C)C(=O)N[C@H]1CN(C(=O)Cc2ccc(F)cc2)CC[C@H]2CC[C@@H](c3nc4c(-c5ccc(F)cc5)cccc4[nH]3)N2C1=O [SM-1307] | < 500 | < 3000 | < 3000 | < 100 | < 100 | – | – | – | – | – | – | – | – | – | –
B1 | – | – | – | – | – | – | – | – | – | – | – | – | – | – | 420
